Experimental data as given in ChEMBL document CHEMBL4387790, “Ophiobolin-Type Sesterterpenoids from the Mangrove Endophytic Fungus Aspergillus sp. ZJ-68” (J Nat Prod, 2019).

Assays:
[1] = Cytotoxicity against mouse RAW264.7 cells assessed as reduction in cell viability by MTT assay; assay type: cell-based
[2] = target: T1, Phosphotyrosine protein phosphatase (Mycobacterium tuberculosis, UniProt A0A045ISB3); assay: Inhibition of Mycobacterium tuberculosis H37Ra PTPB expressed in Escherichia coli BL21 (DE3) using p-nitrophenyl phosphate as substrate preincubated for 10 mins followed by substrate addition and measured for 5 mins by spectrophotometric analysis
T1 sequence (A0A045ISB3 whole entry): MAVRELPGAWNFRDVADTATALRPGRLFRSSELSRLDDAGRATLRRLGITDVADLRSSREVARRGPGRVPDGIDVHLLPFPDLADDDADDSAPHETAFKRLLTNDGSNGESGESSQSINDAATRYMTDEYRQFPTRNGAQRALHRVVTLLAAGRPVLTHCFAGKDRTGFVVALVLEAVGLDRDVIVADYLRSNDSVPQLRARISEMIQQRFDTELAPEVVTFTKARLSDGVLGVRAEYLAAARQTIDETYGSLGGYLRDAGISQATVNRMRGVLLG

RAW264.7 [3] = assay: Anti-inflammatory activity in mouse RAW264.7 cells assessed as inhibition of lipopolysaccharide-induced nitric oxide production incubated for 24 hrs coincubated with LPS by Griess reagent based assay; assay type: functional, cell-based; details: RAW264.7, 24 h
RAW264.7 [4] = assay: Anti-inflammatory activity in mouse RAW264.7 cells assessed as inhibition of lipopolysaccharide-induced nitric oxide production at 50 uM incubated for 24 hrs coincubated with LPS by Griess reagent based assay; assay type: functional; details: RAW264.7, 24 h
[5] = target: T1, Phosphotyrosine protein phosphatase; assay: Inhibition of Mycobacterium tuberculosis H37Ra PTPB using p-nitrophenyl phosphate as substrate

Structure (SMILES)	CC50 [1]	IC50 [2]	IC50 (RAW264.7 [3])	inhibition at 50 µM (RAW264.7 [4])	IC50 [5]
CC(C)=C/C=C\[C@H](C)[C@H]1CC[C@]2(C)C[C@@H]3C(C)=CC(=O)[C@H]3/C(C=O)=C\C[C@@H]12	3.8 µM	> 50 µM	–	–	–
CC(C)=C/C=C\[C@H](C)[C@H]1CC[C@]2(C)C[C@H]3[C@@H](C(=O)C[C@@]3(C)O)/C(C=O)=C\C[C@@H]12	15 µM	> 50 µM	–	–	–
CC(C)=C/C=C\[C@H](C)[C@H]1CC[C@]2(C)CC3=C(C(=O)C[C@H]3C)/C(CO)=C\C[C@@H]12	> 50 µM	> 50 µM	14 µM	–	–
CC(C)=C/C=C\[C@H](C)[C@H]1CC[C@]2(C)C[C@H]3[C@H](C(=O)C[C@@]3(C)O)/C(C=O)=C\C[C@@H]12	4.8 µM	> 50 µM	–	–	–
CC1=CC(=O)[C@H]2/C(C=O)=C\C[C@H]3[C@@H]([C@@H](C)/C=C\[C@@H](O)C(C)(C)O)CC[C@]3(C)C[C@H]12	> 50 µM	> 50 µM	> 50 µM	–	–
CC(C)=C/C=C\[C@H](C)[C@H]1CC[C@]2(C)C[C@@H]3C(C)=CC(=O)[C@H]3/C(CO)=C\C[C@@H]12	> 50 µM	37 µM	25 µM	–	–
CC(C)=C/C=C\[C@H](C)[C@H]1CC[C@]2(C)C[C@H]3[C@@H]4/C(=C\C[C@@H]12)C(=O)O[C@]4(O)C[C@@]3(C)O	> 50 µM	36 µM	> 50 µM	–	–
CC(C)=C/C=C\[C@H](C)[C@H]1CC[C@]2(C)C[C@@H]3C(C)=CC(=O)[C@@H]3/C(C=O)=C\C[C@@H]12	21 µM	24 µM	–	–	–
CC(C)=C/C=C\[C@H](C)[C@H]1CC[C@]2(C)C[C@H]3[C@H]4/C(=C\C[C@@H]12)C(=O)O[C@H]4C[C@@]3(C)O	29 µM	> 50 µM	–	–	–
CC(C)=C/C=C\[C@H](C)[C@H]1CC[C@]2(C)C[C@H]3[C@@H]4/C(=C\C[C@@H]12)CO[C@]4(O)C[C@@]3(C)O	18 µM	> 50 µM	–	–	–
CC(C)=C/C=C\[C@H](C)[C@H]1CC[C@]2(C)C[C@@]3(O)[C@H](C)C[C@@H](O)[C@@H]3/C(C=O)=C\C[C@@H]12	> 50 µM	> 50 µM	> 50 µM	–	–
CC1=CC(=O)[C@@H]2/C(C=O)=C\C[C@H]3[C@@H]([C@@H](C)/C=C\[C@@H](O)C(C)(C)O)CC[C@]3(C)C[C@H]12	> 50 µM	> 50 µM	> 50 µM	< 40%	–
CO[C@]12C[C@@](C)(O)[C@H]3C[C@@]4(C)CC[C@H]([C@@H](C)/C=C\C=C(C)C)/C4=C/C=C(/C(=O)N1)[C@@H]32	> 50 µM	> 50 µM	> 50 µM	–	–
CC1=CC(=O)[C@@H]2/C(C=O)=C\C[C@H]3[C@@H]([C@@H](C)/C=C\[C@H](O)C(C)(C)O)CC[C@]3(C)C[C@H]12	> 50 µM	19 µM	21 µM	–	–
C[C@@H](/C=C\[C@H](O)C(C)(C)O)[C@H]1CC[C@]2(C)C[C@H]3[C@@H](C(=O)C[C@@]3(C)O)/C(C=O)=C\C[C@@H]12	> 50 µM	> 50 µM	16 µM	–	–
CC1=CC(=O)[C@H]2/C(C=O)=C\C[C@H]3[C@@H]([C@@H](C)/C=C\[C@@H]4OC4(C)C)CC[C@]3(C)C[C@H]12	> 50 µM	35 µM	24 µM	–	–
CC(C)=C/C=C\[C@H](C)[C@H]1CC[C@]2(C)C[C@H]3[C@@H]4/C(=C\C=C\12)C(=O)N[C@@H]4C[C@@]3(C)O	> 50 µM	> 50 µM	> 50 µM	–	–
CO[C@]12C[C@@](C)(O)[C@H]3C[C@@]4(C)CC[C@H]([C@@H](C)/C=C\C=C(C)C)[C@@H]4C/C=C(/C(=O)N1)[C@@H]32	> 50 µM	42 µM	42 µM	–	–
CC(C)=C/C=C\[C@H](C)[C@H]1CC[C@]2(C)C[C@H]3[C@H]4/C(=C\C[C@@H]12)CO[C@@]4(O)C[C@@]3(C)O	31 µM	> 50 µM	–	–	–
CC1=CC(=O)[C@H]2/C(C=O)=C\C[C@H]3[C@@H]([C@@H](C)/C=C\[C@H](O)C(C)(C)O)CC[C@]3(C)C[C@H]12	> 50 µM	> 50 µM	14 µM	–	–
CC(C)=C/C=C\[C@H](C)[C@H]1CC[C@]2(C)C[C@H]3[C@@H]4/C(=C\C=C\12)C(=O)N[C@]4(O)C[C@@]3(C)O	> 50 µM	39 µM	> 50 µM	–	–
CC(C)=C/C=C\[C@H](C)[C@H]1CC[C@]2(C)C[C@H]3[C@@H](/C(C=O)=C\C[C@@H]12)[C@H](O)C[C@@]3(C)O	> 50 µM	> 50 µM	9.6 µM	–	–
CC(C)=C/C=C\[C@H](C)[C@H]1CC[C@]2(C)C[C@@H]3C(C)=CC(=O)[C@H]3/C(C(=O)O)=C\C[C@@H]12	> 50 µM	28 µM	> 50 µM	–	–
CC(C)[C@H]1CC[C@@]2(C)CC[C@]3(CO)CC4=C(C(=O)O)CC[C@H]4[C@]4(C)C[C@@H]4[C@H]3[C@H]12	–	–	–	–	2.2 µM
COc1ccc2c(c1)c(CC(=O)O)c(C)n2C(=O)c1ccc(Cl)cc1 [INDOMETHACIN]	> 50 µM	–	38 µM	–	–
